According to ChEMBL document CHEMBL1158138, “Cucurbitane triterpenes from the fruiting bodies and cultivated mycelia of Leucopaxillus gentianeus” (J Nat Prod, 2006):
Values after ≈ are worked out from the molar mass of the structure shown. Active and inactive are the calls of the source. The calls are words filed in the database; no cut-off is given here.

Test system: NCI-H460
Experiment: Antiproliferative activity against human NCI-H460 cells after 72 hrs
Assay type: functional, cell-based
Conditions: NCI-H460, 72 h

Row | Compound | IC50
1 | CC(=O)OC(C)(C)/C=C/C(=O)[C@](C)(O)[C@H]1[C@H](O)C[C@@]2(C)[C@@H]3CC=C4[C@H](C[C@H](O)C(=O)C4(C)C)[C@]3(C)C(=O)C[C@]12C [CUCURBITACIN B] | 0.011 µg/mL (≈ 0.0197 µM)
2 | CC(=O)O[C@H](C[C@@H](OC(C)=O)C(C)(C)O)[C@@H](C)[C@H]1CC[C@@]2(C)[C@@H]3CC=C4[C@@H](CCC(=O)C4(C)C)[C@]3(C)CC[C@]12CO [LEUCOPAXILLONE A] | 3.5 µg/mL (≈ 6.09 µM)
3 | CC(=O)OC(C)(C)/C=C/C(=O)[C@@](C)(O)[C@H]1CC[C@@]2(C)[C@@H]3CC=C4[C@@H](C[C@H](O)C(=O)C4(C)C)[C@]3(C)C(=O)C[C@]12C [16-DEOXYCUCURBITACIN B] | 0.06 µg/mL (≈ 0.111 µM)
4 | CC[C@@]1(O)C(=O)OCc2c1cc1n(c2=O)Cc2cc3c(CN(C)C)c(O)ccc3nc2-1 [TOPOTECAN] | 0.008 µg/mL (≈ 0.019 µM)
5 | CC(=O)O[C@H](C[C@@H](OC(C)=O)C(C)(C)O)[C@@H](C)[C@H]1CC[C@@]2(C)[C@@H]3CC=C4[C@@H](CCC(=O)C4(C)C)[C@]3(C)[C@]3(O)C[C@]12CO3 [LEUCOPAXILLONE B] | 0.3 µg/mL (≈ 0.51 µM)
6 | CC(=O)O[C@H](C[C@@H](OC(C)=O)C(C)(C)O)[C@@H](C)[C@H]1[C@H](O)C[C@@]2(C)[C@@H]3CC=C4[C@@H](CCC(=O)C4(C)C)[C@]3(C)C(=O)C[C@]12C [18-DEOXYLEUCOPAXILLONE A] | 10.6 µg/mL (≈ 18 µM)
7 | CC(C)(O)/C=C/C(=O)[C@](C)(O)[C@H]1[C@H](O)C[C@@]2(C)[C@@H]3CC=C4[C@@H](C[C@H](O)C(=O)C4(C)C)[C@]3(C)C(=O)C[C@]12C [CUCURBITACIN D] | 0.12 µg/mL (≈ 0.232 µM)

Target: T1, DNA topoisomerase 1 (Homo sapiens) (UniProt P11387)
T1 sequence (whole entry): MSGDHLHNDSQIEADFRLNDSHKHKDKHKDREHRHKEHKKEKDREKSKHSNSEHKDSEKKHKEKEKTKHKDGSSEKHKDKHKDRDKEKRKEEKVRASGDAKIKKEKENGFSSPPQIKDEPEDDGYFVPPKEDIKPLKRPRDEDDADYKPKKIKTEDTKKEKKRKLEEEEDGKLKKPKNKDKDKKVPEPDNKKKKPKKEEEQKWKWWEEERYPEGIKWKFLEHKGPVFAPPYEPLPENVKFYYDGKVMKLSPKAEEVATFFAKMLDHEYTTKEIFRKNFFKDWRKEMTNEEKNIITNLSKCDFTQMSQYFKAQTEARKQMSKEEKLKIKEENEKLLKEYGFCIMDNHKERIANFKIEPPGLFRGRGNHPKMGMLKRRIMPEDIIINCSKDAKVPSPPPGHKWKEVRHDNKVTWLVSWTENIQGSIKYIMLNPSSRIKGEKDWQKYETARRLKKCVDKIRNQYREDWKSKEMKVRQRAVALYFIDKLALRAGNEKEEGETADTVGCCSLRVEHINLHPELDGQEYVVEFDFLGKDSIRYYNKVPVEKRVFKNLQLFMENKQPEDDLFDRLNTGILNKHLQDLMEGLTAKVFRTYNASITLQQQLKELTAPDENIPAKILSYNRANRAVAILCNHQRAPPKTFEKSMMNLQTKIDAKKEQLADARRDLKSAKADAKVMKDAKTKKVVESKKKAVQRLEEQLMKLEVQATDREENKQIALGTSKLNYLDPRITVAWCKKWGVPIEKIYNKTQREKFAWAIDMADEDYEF
Experiment: Inhibition of topoisomerase 1-mediated SV40 DNA cleavage at 1 to 50 uM by gel electrophoresis
Conditions: not given

Row | Compound | Activity
8 | CCc1c2c(nc3ccc(O)cc13)-c1cc3c(c(=O)n1C2)COC(=O)[C@]3(O)CC | Active
9 | CC(=O)OC(C)(C)/C=C/C(=O)[C@](C)(O)[C@H]1[C@H](O)C[C@@]2(C)[C@@H]3CC=C4[C@H](C[C@H](O)C(=O)C4(C)C)[C@]3(C)C(=O)C[C@]12C [CUCURBITACIN B] | Active
